For data set [1], the system named is MMP-9. Description: Digestion of peptides by MMP-9. It is filed as in vitro ADME. The conditions noted are these: MMP-9 (10 U) in Tris-HCl buffer, pH 7.5.
Data set [2] deals with MMP-9. Description: Tris-HCl buffer. The conditions noted are these: 37 °C, up to 72 h.

The source of these data is publication PMC3920740 (Biopolymers, 2013).

Where a SMILES comes first, the peptide text is derived from it. The star is where a group is joined. Acetyl(1-pyrenyl) = O=C(Cc1ccc2ccc3cccc4ccc1c2c34)*; Acetyl(2-naphthyl) = O=C(Cc1ccc2ccccc2c1)*

For orientation: fraction remaining means the share of the starting amount still present when the sample was taken. High values mean less turnover, low ones more turnover.

In turn, `CC(C)C[C@H](NC(=O)CNC(=O)[C@H](CC(C)C)NC(=O)[C@@H]1CCCN1C(=O)CNC(=O)[C@H](Cc1ccccc1)NC(=O)[C@H](Cc1ccccc1)NC(=O)Cc1ccc2ccccc2c1)C(=O)N[C@@H](CCCNC(=N)N)C(=O)N[C@@H](CO)C(=O)N[C@@H](CCCCN)C(=O)O` [3a] ({Acetyl(2-naphthyl)}-FFGPLGLRSK-OH; N-terminus assumed) showed an amount remaining at 72 h, 500 μM in the data set on MMP-9 [1] of 41%.
In the data set with MMP-9 [1], `CC(C)C[C@H](NC(=O)[C@H](CO)NC(=O)[C@H](CC(C)C)NC(=O)[C@@H]1CCCN1C(=O)Cc1ccc2ccc3cccc4ccc1c2c34)C(=O)N[C@@H](CCCNC(=N)N)C(=O)N[C@@H](CO)C(=O)N[C@@H](CCCCN)C(=O)O` [4c] ({Acetyl(1-pyrenyl)}-PLSLRSK-OH; N-terminus assumed) returned a fraction remaining at 72 h, 500 μM of 18%.
As to PLGLRSK, in the data set with MMP-9 [2], the cleaved bond result was “L-R, major”.
Regarding PLSLRSK, in the data set on MMP-9 [2], the cleaved bond result is given as “L-R, major”.
